In patent US20170145472A1, “METHOD OF DETECTING HELICASE ACTIVITY” (University of Macau, priority 2015, published 2017):

Tests used:
[1] = target: T1, helicase (Hepatitis C virus genotype 1a, UniProt P27958); assay: Luminescence response of complexes towards helicase alone; details: helicase alone, no DNA
T1 construct: upon the addition of 0.8 μM HCV NS3 helicase; purchased Prospec Inc. (Ness-Ziona, Israel)
Description: M G-quadruplex DNA over helicase, IG4/Ihelicase refers to the ratio of the lunminscent response of PS2. M G-quadruplex DNA over helicase.

[2] = Photophysical measurement; type: physicochemical; details: for Quantum yield: reference [Ru(bpy)3][PF6]2 in degassed acetonitrile
Description: Emission spectra and lifetime measurements for complexes were performed on a PTI TimeMaster C720 Spectrometer (Nitrogen laser: pulse output 337 nm) fitted with a 380 nm filter. Error limits were estimated: λ (±1 nm); τ (±10%); φ (±10%). All solvents used for the lifetime measurements were degassed using three cycles of freeze-vac-thaw.
Luminescence quantum yields were determined using the method of Demas and Crosby [Ru(bpy)3][PF6]2 in degassed acetonitrile as a standard reference solution (Φr=0.062) and calculated according to the following equation:
Φs=Φr(Br/Bs)(ns/nr)^2(Ds/Dr) • where the subscripts s and r refer to sample and reference standard solution respectively, n is the refractive index of the solvents, D is the integrated intensity, and Φ is the luminescence quantum yield. The quantity B was calculated by B=1−10^−AL, where A is the absorbance at the excitation wavelength and L is the optical path length.

[3] = system: PS2.M G-quadruplex DNA; assay: Luminescence response of Ir(III) complexes towards different forms of DNA; type: binding; details: complex 1 μM, DNA 5 μM; PS2.M G-quadruplex vs ds17 and CCR5-DEL
Description: M G-quadruplex DNA (G4) over dsDNA (ds17) and ssDNA (CCRS-DEL), in particular IG4/IdsDNA refers to the ratio of the luminescent response of PS2. M G-quadruplex DNA over dsDNA (ds17); and IG4/IssDNA refers to the ratio of the luminescent response of PS2. M G-quadruplex DNA over ssDNA(CCR5-DEL).
M G-quadruplex DNA over dsDNA (ds17) and ssDNA (CCRS-DEL), in particular IG4/IdsDNA refers to the ratio of the luminescent response of PS2. M G-quadruplex DNA over dsDNA (ds17); and IG4/IssDNA refers to the ratio of the luminescent response of PS2. M G-quadruplex DNA over ssDNA(CCR5-DEL).
The G-quadruplex DNA-forming sequence (PS2. M) was annealed in Tris-HCl buffer (20 mM Tris, 100 mM KCl, pH 7.0) and were stored at −20° C. or less than −20° C. before use. Complex 1-17 (1 μM) was added to 5 μM of ssDNA, dsDNA or PS2. M G-quadruplex DNA in Tris-HCl buffer (20 mM Tris, pH 7.0).

[4] = target: T2, HCV NS3 helicase (Hepatitis C virus genotype 1a, UniProt P27958); assay: G-quadruplex-based luminescent HCV NS3 helicase activity assay; type: biochemical; details: for inhibitory activity towards HCV NS3 helicase: 10 μM inhibitor, 0.8 μM helicase
T2 construct: upon the addition of 0.8 μM HCV NS3 helicase; purchased Prospec Inc. (Ness-Ziona, Israel)
Description: The random-coil oligonucleotides ON1 (100 μM) and ON2 (100 μM) were incubated in Tris buffer (20 mM, pH 7.0). The solution was heated at a temperature of 72-98° C., in particular 95° C., for at least 30 seconds in particular 10 min, cooled to room temperature at 0.1° C./s, and further incubated at room temperature for 1 hour to ensure formation of the duplex substrate. The annealed product was stored at −20° C. before use. For assaying enzyme activity, 50 μL of Tris buffered solution (5 mM Tris-HCl, 5 mM NaCl, 1 mM MgCl2, 1 mM ATP, 0.1 mM DTT, pH 7.9) with the indicated concentrations of helicase or S1, Endo, DpnI, ExoI, EcoRI, RNase, DNase, and SSB were added to a solution containing the duplex substrate (0.25 μM). The mixture was heated to 37° C. for at least 30 minutes, e.g. 2 hours, to allow the indicated enzymes-catalyzed unwinding of the duplex substrate to take place. The duplex unwinding reaction was quenched by the addition of EDTA at a final concentration of 20 mM, and the mixture was subsequently diluted using Tris buffer (20 mM Tris, 20 mM KCl, 150 mM NH4Ac, pH 7.2) to a final volume of 500 μL. […] Emission spectra were recorded in the 500-720 nm range using an excitation wavelength of 360 nm.
For the detection of helicase activity in cell extract, 50 μL of Tris buffered solution (5 mM Tris-HCl, 5 mM NaCl, 1 mM MgCl2, 1 mM ATP, 0.1 mM DTT, pH 7.9) and the indicated concentrations of helicase were added to a solution containing the duplex substrate (0.25 μM) and cell extract. The mixture was heated to 37° C. for at least 30 minutes, e.g. 2 hours, to allow the helicase-catalyzed unwinding of the duplex substrate to take place. The duplex unwinding reaction was quenched by the addition of EDTA at a final concentration of 20 mM, and the mixture was subsequently diluted using Tris buffer (20 mM Tris, 20 mM KCl, 150 mM NH4Ac, pH 7.2) to a final volume of 500 μL. Finally, 1 μM of complex 9 was added to the mixture. Emission spectra were recorded in the 500-720 nm range using an excitation wavelength of 360 nm.

T2 sequence (P27958 1027-1657): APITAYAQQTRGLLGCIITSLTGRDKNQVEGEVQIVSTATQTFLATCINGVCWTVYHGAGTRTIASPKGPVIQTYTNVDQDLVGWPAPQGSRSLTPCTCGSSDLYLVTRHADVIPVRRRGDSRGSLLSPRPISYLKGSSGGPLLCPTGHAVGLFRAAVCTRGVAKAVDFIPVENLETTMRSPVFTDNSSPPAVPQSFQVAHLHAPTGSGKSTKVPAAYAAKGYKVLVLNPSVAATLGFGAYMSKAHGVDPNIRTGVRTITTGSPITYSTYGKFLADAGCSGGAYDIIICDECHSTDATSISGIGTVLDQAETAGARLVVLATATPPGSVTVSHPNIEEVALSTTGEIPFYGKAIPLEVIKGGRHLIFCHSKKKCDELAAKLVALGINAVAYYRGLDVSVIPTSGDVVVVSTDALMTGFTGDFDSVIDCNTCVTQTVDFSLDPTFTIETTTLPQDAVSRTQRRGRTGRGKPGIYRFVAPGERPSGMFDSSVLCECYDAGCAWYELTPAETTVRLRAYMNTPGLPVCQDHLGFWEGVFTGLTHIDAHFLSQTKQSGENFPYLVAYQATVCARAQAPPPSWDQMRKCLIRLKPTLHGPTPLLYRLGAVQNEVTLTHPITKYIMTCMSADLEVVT
T1 sequence (P27958 1027-1657): as above

Row | Compound | Lifetime [2] [μs] | λem [2] [nm] | Quantum yield [2] | also measured
1 | F[P-](F)(F)(F)(F)F.c1ccc(-c2ccc3ccc4ccc(-c5ccccc5)[n+]5c4c3[n+]2[Ir-3]523([c]4ccccc4-n4ccc[n+]42)[c]2ccccc2-n2ccc[n+]23)cc1 [Complex 1] | 3.29 | 629 | 0.13 | luminescence enhancement in the presence of helicase only [1]: enhanced in the presence of helicase only
2 | Cc1c(C)c2cccnc2c2ncccc12.Cc1c[c-]c(-c2ccccn2)cc1.Cc1c[c-]c(-c2ccccn2)cc1.F[P-](F)(F)(F)(F)F.[Ir+3] [Complex 2] | 0.74 | 577 | 0.057 | luminescence enhancement in the presence of helicase only [1]: enhanced in the presence of helicase only
3 | Cc1cccc2[n+]1[Ir-3]13([c]4ccccc4-2)([c]2ccccc2-c2cccc(C)[n+]21)[n+]1ccc(-c2ccccc2)c2ccc4c(-c5ccccc5)cc[n+]3c4c21.F[P-](F)(F)(F)(F)F [Complex 5] | 1.23 | 590 | 0.12 | selectivity of luminescence response for G-quadruplex DNA over dsDNA and ssDNA [3]: non-selective for G-quadruplex DNA
4 | F[P-](F)(F)(F)(F)F.[Ir+3].[c-]1ccccc1-c1ncco1.[c-]1ccccc1-c1ncco1.c1ccc(-c2ccccn2)nc1 [Complex 6] | 0.28 | 580 | 0.089 | selectivity of luminescence response for G-quadruplex DNA over dsDNA and ssDNA [3]: non-selective for G-quadruplex DNA
5 | Clc1cc2cccnc2c2ncccc12.F[P-](F)(F)(F)(F)F.[Ir+3].[c-]1ccccc1-c1ccc2ccccc2n1.[c-]1ccccc1-c1ccc2ccccc2n1 [Complex 7] | 1.34 | 571 | 0.056 | selectivity of luminescence response for G-quadruplex DNA over dsDNA and ssDNA [3]: selective response for G-quadruplex DNA; luminescence enhancement in the presence of helicase only [1]: not showing any luminescence enhancement towards helicase
6 | Clc1cc[n+]2c3c1ccc1c(Cl)cc[n+](c13)[Ir-3]213([c]2ccccc2-c2ccc4ccccc4[n+]21)[c]1ccccc1-c1ccc2ccccc2[n+]13.F[P-](F)(F)(F)(F)F [Complex 10] | 2.89 | 590 | 0.086 | 
7 | Cc1ccc2ccc3ccc(C)[n+]4c3c2[n+]1[Ir-3]412([c]3ccccc3-c3ccc4ccccc4[n+]31)[c]1ccccc1-c1ccc3ccccc3[n+]12.F[P-](F)(F)(F)(F)F [Complex 11] | 1.96 | 570 | 0.087 | 
8 | Cc1cc(-c2ccccc2)c2ccc3c(-c4ccccc4)cc(C)[n+]4c3c2[n+]1[Ir-3]412([c]3ccccc3-c3ccc4ccccc4[n+]31)[c]1ccccc1-c1ccc3ccccc3[n+]12.F[P-](F)(F)(F)(F)F [Complex 12] | 1.84 | 575 | 0.063 | 
9 | F[P-](F)(F)(F)(F)F.c1cc[c]2c(c1)-c1ccc3ccccc3[n+]1[Ir-3]213([c]2ccccc2-c2ccc4ccccc4[n+]21)[n+]1cccc2c4nccnc4c4ccc[n+]3c4c21 [Complex 13] | 4.61 | 568 | 0.067 | 
10 | F[P-](F)(F)(F)(F)F.c1ccc(-c2cc[n+]3c(c2)-c2cc(-c4ccccc4)cc[n+]2[Ir-3]324([c]3ccccc3-c3ccc5ccccc5[n+]32)[c]2ccccc2-c2ccc3ccccc3[n+]24)cc1 [Complex 14] | 4.586 | 560 | 0.15 | 
11 | Clc1cc2ccc[n+]3c2c2c1ccc[n+]2[Ir-3]312([c]3ccccc3-c3[nH]c4ccccc4[n+]31)[c]1ccccc1-c1[nH]c3ccccc3[n+]12.F[P-](F)(F)(F)(F)F [Complex 15] | 2.71 | 620 | 0.092 | 
12 | Clc1cc2cccnc2c2ncccc12.F[P-](F)(F)(F)(F)F.[Ir+3].[c-]1ccccc1-c1ccccn1.[c-]1ccccc1-c1ccccn1 [Complex 17] | 2.87 | 608 | 0.078 | 
13 | Brc1c(Br)c(Br)c2n[nH]nc2c1Br [TBBT, reference compound] |  |  |  | inhibitory activity towards HCV NS3 helicase [4]: displayed inhibitory activity
14 | O=C(O)c1cn(C2CC2)c2cc(N3CCNCC3)c(F)cc2c1=O [ciprofloxacin, reference compound] |  |  |  | decrease of luminescence signal of the system ([4]; 10 μM of ciprofloxacin): about 40%; luminescence signal of the system in the presence of inhibitor ([4]; ciprofloxacin 0, 1, 2.5, 5, 10, 20 μM): diminished in the presence of ciprofloxacin in a dose-dependent manner
15 | Cc1ccc(C(=O)Nc2ccc(S(=O)(=O)O)c3cc(S(=O)(=O)O)cc(S(=O)(=O)O)c23)cc1NC(=O)c1cccc(NC(=O)Nc2cccc(C(=O)Nc3cc(C(=O)Nc4ccc(S(=O)(=O)O)c5cc(S(=O)(=O)O)cc(S(=O)(=O)O)c45)ccc3C)c2)c1 [suramin, reference compound] |  |  |  | inhibitory activity towards HCV NS3 helicase [4]: displayed inhibitory activity
16 | single-stranded DNA binding protein: single-stranded DNA binding protein (SSB) purchased from New England Biolabs |  |  |  | response of the complex 9+G-quadruplex DNA system to other enzymes or proteins (emission intensity) ([4]; selectivity test, enzyme in place of helicase): relatively low emission enhancement
